Data taken from patent publication US7956190B2, “Benzimidazole amido derivatives as kinase inhibitors” (Hoffmann-La Roche Inc., priority 2007, dated 2011).

Test system: HCT 116 cells
Test: CellTiter-Glo Assay in HCT 116 Cells
Format: cell-based
Details: HCT 116 human colon carcinoma cells, 5 days (120 h) incubation, CellTiter-Glo luminescence, tested in triplicate
From the text: CellTiter-Glo™ Assay in HCT 116 Cells
The CellTiter-Glo™ Luminescent Cell Viability Assay (Promega) is a homogeneous method of determining the number of viable cells in culture based on quantitation of the ATP present, which signals the presence of metabolically active cells.
HCT 116 cells (human colon carcinoma, ATCC-No. CCl-247) were cultivated in RPMI 1640 medium with GlutaMAX™ I (Invitrogen, Cat-No. 61870-010), 5% Fetal Calf Serum (FCS, Sigma Cat-No. F4135 (FBS)); 100 Units/ml penicillin/100 μg/ml streptomycin (=Pen/Strep from Invitrogen Cat. No. 15140). For the assay the cells were seeded in 384 well plates, 1000 cells per well, in the same medium. The next day the test compounds were added in various concentrations ranging from 30 μM to 0.0015 μM (10 concentrations, 1:3 diluted). After 5 days the CellTiter-Glo™ assay was done according to the instructions of the manufacturer (CellTiter-Glo™ Luminescent Cell Viability Assay, from Promega). In brief: the cell-plate was equilibrated to room temperature for approximately 30 minutes and than the CellTiter-Glo™ reagent was added. The contents were carefully mixed for 15 minutes to induce cell lysis. After 45 minutes the luminescent signal was measured in Victor 2, (scanning multiwell spectrophotometer, Wallac).
• Medium: RPMI 1640 with GlutaMAX™ I (Invitrogen, Cat-Nr. 61870), 5% FCS (Sigma Cat.-No. F4135), Pen/Strep (Invitrogen, Cat No. 15140). • HCT116 (ATCC-No. CCl-247): 1000 cells in 60 μl per well of 384 well plate (Greiner 781098, μClear-plate white) • After seeding incubate plates 24 h at 37° C., 5% CO2 2nd. Day: Induction (Treatment with Compounds, 10 Concentrations):
In order to achieve a final concentration of 30 μM as highest concentration 3.5 μl of 10 mM compound stock solution were added directly to 163 μl media. Then step e) of the dilution procedure described below, was followed.

Structure (SMILES)	IC50
COc1ccc(OC(=O)Nc2cccc3nc(-c4c(NC[C@@H](O)c5ccccc5)cc[nH]c4=O)[nH]c23)cc1 [Example C-1, {2-[4-((S)-2-Hydroxy-2-phenyl-ethylamino)-2-oxo-1,2-dihydro-pyridin-3-yl]-3H-benzoimidazol-4-yl}-carbamic acid 4-methoxy-phenyl ester]	1 to 15 µM
C=CCOC(=O)Nc1cccc2nc(-c3c(NC[C@@H](O)c4ccccc4)cc[nH]c3=O)[nH]c12 [Example C-5, {2-[4-((S)-2-Hydroxy-2-phenyl-ethylamino)-2-oxo-1,2-dihydro-pyridin-3-yl]-3H-benzoimidazol-4-yl}-carbamic acid allyl ester]	2.78 µM
N#Cc1cccc(C(=O)Nc2cccc3[nH]c(-c4c(NCc5ccccn5)cc[nH]c4=O)nc23)c1 [Example A-1, 3-Cyano-N-(2-[2-oxo-4-1 (pyridin-2-ylmethyl)-amino]-1,2-dihydro-pyridin-1H-benzoimidazol-4-yl)-benzamide]	1.36 µM
O=C(Nc1cccc2nc(-c3c(NC[C@@H](O)c4ccccc4)cc[nH]c3=O)[nH]c12)c1ccc(Cl)cc1Cl [Example B-16, 2,4-Dichloro-N-{2-[4-((S)-2-hydroxy-2-phenyl-ethylamino)-2-oxo-1,2-dihydro-pyridin-3-yl}-3H-benzoimidazol-4-yl]-benzamide]	1 to 15 µM
COc1cccc(C(=O)Nc2cccc3nc(-c4c(NC[C@@H](O)c5ccccc5)cc[nH]c4=O)[nH]c23)c1 [Example B-18, N-{2-[4-((S)-2-Hydroxy-2-phenyl-ethylamino)-2-oxo-1,2-dihydro-pyridin-3-yl]-3H-benzoimidazol-4-yl}-3-methoxy-benzamide]	1 to 15 µM
COc1ccc(C(=O)Nc2cccc3nc(-c4c(NCc5cccc(Cl)c5)cc[nH]c4=O)[nH]c23)cc1 [Example A-8, N-{2-[4-(3-Chloro-benzylamino)-2-oxo-1,2-dihydro-pyridin-3-yl]-3H-benzoimidazol-4-yl}-4-methoxy-benzamide]	1 to 15 µM
CC(C)OC(=O)Nc1cccc2nc(-c3c(NC[C@@H](O)c4ccccc4)cc[nH]c3=O)[nH]c12 [Example C-6, {2-[4-((S)-2-Hydroxy-2-phenyl-ethylamino)-2-oxo-1,2-dihydro-pyridin-3-yl]-3H-benzoimidazol-4-yl}-carbamic acid isopropyl ester]	1 to 15 µM
O=C(Nc1cccc2nc(-c3c(NCc4ccccc4)cc[nH]c3=O)[nH]c12)c1ccccc1 [Example A-4, N-[2-(4-Benzylamino-2-oxo-1,2-dihydro-pyridin-3-yl)-3H-benzoimidazol-4-yl]-benzamide]	1 to 15 µM
N#Cc1cccc(C(=O)Nc2cccc3nc(-c4c(NC[C@@H](O)c5ccccc5)cc[nH]c4=O)[nH]c23)c1 [Example B-12, 3-Cyano-N-{2-[4-((S)-2-hydroxy-2-phenyl-ethylamino)-2-oxo-1,2-dihydro-pyridin-3-yl]-3H-benzoimidazol-4-yl}-benzamide]	1 to 15 µM
COc1ccccc1C(=O)Nc1cccc2nc(-c3c(NCc4ccccc4)cc[nH]c3=O)[nH]c12 [Example A-16, N-[2-(4-Benzylamino-2-oxo-1,2-dihydro-pyridin-3-yl)-3H-benzoimidazol-4-yl]-2-methoxy-benzamide]	1 to 15 µM
O=C(Nc1cccc2nc(-c3c(NCc4ccccn4)cc[nH]c3=O)[nH]c12)c1ccc(Cl)cc1 [Example A-7, 4-Chloro-N-(2-{2-oxo-4-[(pyridin-2-ylmethyl)-amino]-1,2-dihydro-pyridin-3-yl}-3H-benzoimidazol-4-yl)-benzamide]	1 to 15 µM

More lines, now with the values ahead:

IC50	Structure (SMILES)
3.61 µM	O=C(Nc1ccc(F)cc1)Nc1cccc2nc(-c3c(NC[C@@H](O)c4ccccc4)cc[nH]c3=O)[nH]c12 [Example D-3, 1-(4-Fluoro-phenyl)-3-{2-[4-((S)-2-hydroxy-2-phenyl-ethylamino)-2-oxo-1,2-dihydro-pyridin-3-yl]-3H-benzoimidazol-4-yl}-urea]
1 to 15 µM	O=C(COc1ccccc1)Nc1cccc2nc(-c3c(NC[C@@H](O)c4ccccc4)cc[nH]c3=O)[nH]c12 [Example B-6, N-{2-[4-((S)-2-Hydroxy-2-phenyl-ethylamino)-2-oxo-1,2-dihydro-pyridin-3-yl]-3H-benzoimidazol-4-yl}-2-phenoxy-acetamide]
1 to 15 µM	O=C(Nc1ccccc1)Nc1cccc2nc(-c3c(NC[C@@H](O)c4ccccc4)cc[nH]c3=O)[nH]c12 [Example D-5, 1-{2-[4-((S)-2-Hydroxy-2-phenyl-ethylamino)-2-oxo-1,2-dihydro-pyridin-3-yl]-3H-benzoimidazol-4-yl}-3-phenyl-urea]
1 to 15 µM	COc1cccc(NC(=O)Nc2cccc3nc(-c4c(NC[C@@H](O)c5ccccc5)cc[nH]c4=O)[nH]c23)c1 [Example D-6, 1-{2-[4-((S)-2-Hydroxy-2-phenyl-ethylamino)-2-oxo-1,2-dihydro-pyridin-3-yl]-3H-benzoimidazol-4-yl}-3-(3-methoxy-phenyl)-urea]
1 to 15 µM	O=C(Nc1ccc(OC(F)(F)F)cc1)Nc1cccc2nc(-c3c(NC[C@@H](O)c4ccccc4)cc[nH]c3=O)[nH]c12 [Example D-4, 1-{2-[4-((S)-2-Hydroxy-2-phenyl-ethylamino)-2-oxo-1,2-dihydro-pyridin-3-yl]-3H-benzoimidazol-4-yl}-3-(4-trifluoromethoxy-phenyl)-urea]
